Measured values as given in patent publication US7943644B2, “Stabilization of iodine-containing biocides by means of special azole compounds” (LANXESS Deutschland GmbH, priority 2006, dated 2011).

Experiment: Storage stability of IPBC in Dowanol TPM solution with cobalt dryer and azole stabilizer (HPLC)
Format: physicochemical
Conditions: 10% by weight IPBC, 5% Octasoligen-Cobalt 8, 5% stabilizer; for Amount of IPBC (start): HPLC at the beginning; for Amount of IPBC (2 weeks, 40° C.): stored at 40° C., HPLC after two weeks
Protocol: A solution was prepared in Dowanol TPM (tripropylene glycol methyl ether), containing 10% by weight of iodopropargyl butylcarbamate, 5% by weight of Octasoligen-Cobalt 8 (Borchers, Langenfeld, Germany) and 5% by weight of the azole compounds of the formula (I) specified as a stabilizer in Table 1. The mixture was stored at 40° C. The amount of IPBC was determined by means of HPLC at the beginning and after two weeks.

Structure (SMILES)	Amount of IPBC (start) [%]	Amount of IPBC (2 weeks, 40° C.) [%]
Sc1nnc[nH]1 [Example 1]	10.2	9.0
Oc1nnc(S)[nH]1 [Example 2]	9.9	8.9
Nc1nnc[nH]1 [Example 3]	9.7	9.5
Nc1nnc(N)[nH]1 [Example 4]	9.7	9.7
